Assay results as given in US20090042910A1, “QUINOLINE DERIVATIVES FOR TREATING CANCER” (priority 2006, published 2009).

Legend:
PDGFRβ = biological target: T1, PDGFRβ (Homo sapiens, UniProt P09619); assay: In vitro phospho-Tyr751 PDGFRβ ELISA assay in MG63 osteosarcoma cells (Test b); type: cell-based; settings: MG63 cells stimulated with PDGFBB, read-out: IC50 versus phospho-Tyr751 formation in PDGFRβ
T1 construct: endogenous in cells; host or cells: MG63 osteosarcoma cells (ATCC)
Experimental: This assay uses a conventional ELISA method to determine the ability of test compounds to inhibit phosphorylation of tyrosine in PDGFRβ.
An MG63 osteosarcoma cell line [American Type Culture Collection (ATCC) CCL 1427] was routinely maintained at 37° C. with 7.5% CO2 in Dulbecco's modified Eagle's growth medium (DMEM; Sigma-Aldrich; Catalogue No. D6546) containing 10% foetal calf serum (FCS; Sigma-Aldrich; Catalogue No. F7524) and 2 mM L-glutamine (Invitrogen Ltd., Paisley, UK; Catalogue No. 25030-024).
For the assay, the cells were detached from the culture flask using a trypsin/ethylenediaminetetraacetic acid (EDTA) mixture (Invitrogen Ltd.; Catalogue No. 15400-054) and resuspended in a test medium comprising DMEM without phenol red (Sigma-Aldrich; Catalogue No. D5921) containing 1% charcoal-stripped foetal calf serum (FCS) (Sigma-Aldrich; Catalogue No. F7524, stripped by incubation with dextran-coated activated charcoal at 55° C. for 30 minutes with continuous stirring followed by removal of the charcoal by centrifugation and filter sterilisation) and 2 mM L-glutamine (Invitrogen Ltd., Catalogue No. 25030-024) to give 6×10^4 cells per ml. […]

KDR (VEGFR2) = biological target: T2, KDR (VEGFR2) (Homo sapiens, UniProt P35968); assay: In vitro phospho-KDR ELISA assay in HUVECs (Test c); type: cell-based; settings: HUVECs stimulated with VEGF, read-out: IC50 versus phospho-tyrosine formation in KDR
T2 construct: phosphorylation of KDR expressed in human umbilical vein endothelial cells (HUVECs); host or cells: HUVECs (primary human umbilical vein endothelial cells)
Experimental: This assay uses a conventional ELISA method to determine the ability of test compounds to inhibit phosphorylation of tyrosine in KDR (VEGFR2).
Human umbilical vein endothelial cells (HUVECs; PromoCell) were routinely incubated at 37° C. with 7.5% CO2 in ‘growth medium’ comprising MCDB 131 (Gibco Catalogue No. 10372-019; 500 ml) containing L-glutamine (Sigma Catalogue No. G3126; 0.848 g), 1% Penicillin Streptomycin (Gibco Catalogue No. 15140-122) and Fetal Bovine Serum (PAA Laboratories Catalogue No. A15-043; 50 ml).
For the assay, the cells were detached from the culture flask using a trypsin/ethylenediaminetetraacetic acid (EDTA) mixture (Invitrogen Ltd.; Catalogue No. 15400-054) and resuspended in ‘test medium’ comprising MCDB 131 (500 ml) containing L-glutamine (0.848 g), 1% Penicillin Streptomycin and Fetal Bovine Serum (10 ml). Aliquots (1 ml) were seeded into each well of a 24 well tissue culture plate (Corning Life Sciences; Catalogue No. 3527) to give a density of approximately 3.5×10^4 cells per well. The cells were incubated overnight at 37° C. with 7.5% CO2 to allow adherence to the well surface. The following morning the assay medium was decanted and an aliquot (0.5 ml) of ‘serum free medium’ comprising MCDB 131 (500 ml) containing L-glutamine (0.848 g) and 1% Penicillin Streptomycin was added to each well. The plates were incubated at 37° C. for 2.5 hours. […]

T2 sequence (P35968 20-1356): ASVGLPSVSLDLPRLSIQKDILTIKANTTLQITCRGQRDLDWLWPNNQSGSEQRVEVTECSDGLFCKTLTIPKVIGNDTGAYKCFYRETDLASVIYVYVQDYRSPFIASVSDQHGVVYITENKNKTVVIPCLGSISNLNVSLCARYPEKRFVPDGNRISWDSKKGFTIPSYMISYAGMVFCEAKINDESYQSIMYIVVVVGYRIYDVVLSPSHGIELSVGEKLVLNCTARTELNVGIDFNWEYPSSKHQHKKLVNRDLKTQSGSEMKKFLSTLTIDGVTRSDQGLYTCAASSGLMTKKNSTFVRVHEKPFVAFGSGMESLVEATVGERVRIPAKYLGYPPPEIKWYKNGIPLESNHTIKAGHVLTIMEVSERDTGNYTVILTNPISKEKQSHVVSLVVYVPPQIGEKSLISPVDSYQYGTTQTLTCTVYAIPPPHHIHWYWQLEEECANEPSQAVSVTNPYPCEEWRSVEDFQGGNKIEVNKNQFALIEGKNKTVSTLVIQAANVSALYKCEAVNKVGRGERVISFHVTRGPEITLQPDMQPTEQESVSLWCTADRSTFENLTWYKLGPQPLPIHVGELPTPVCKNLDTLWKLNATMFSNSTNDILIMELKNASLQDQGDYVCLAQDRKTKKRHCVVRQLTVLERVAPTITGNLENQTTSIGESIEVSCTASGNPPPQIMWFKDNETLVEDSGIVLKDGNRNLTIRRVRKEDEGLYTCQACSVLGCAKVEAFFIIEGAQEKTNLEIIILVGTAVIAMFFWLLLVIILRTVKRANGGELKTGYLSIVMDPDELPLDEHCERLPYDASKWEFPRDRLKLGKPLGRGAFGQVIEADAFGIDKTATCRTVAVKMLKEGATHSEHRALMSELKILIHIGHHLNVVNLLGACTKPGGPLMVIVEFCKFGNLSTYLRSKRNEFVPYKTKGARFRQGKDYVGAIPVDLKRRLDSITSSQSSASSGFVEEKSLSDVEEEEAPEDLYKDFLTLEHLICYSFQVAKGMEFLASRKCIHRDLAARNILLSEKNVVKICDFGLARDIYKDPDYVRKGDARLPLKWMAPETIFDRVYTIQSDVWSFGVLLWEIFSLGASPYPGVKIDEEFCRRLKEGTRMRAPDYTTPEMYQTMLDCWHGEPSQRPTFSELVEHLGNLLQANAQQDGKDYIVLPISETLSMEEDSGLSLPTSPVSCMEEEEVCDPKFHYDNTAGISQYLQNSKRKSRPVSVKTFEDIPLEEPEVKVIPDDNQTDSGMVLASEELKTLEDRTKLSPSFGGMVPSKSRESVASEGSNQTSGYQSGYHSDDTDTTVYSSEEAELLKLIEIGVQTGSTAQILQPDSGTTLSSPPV
T1 sequence (P09619 33-1106): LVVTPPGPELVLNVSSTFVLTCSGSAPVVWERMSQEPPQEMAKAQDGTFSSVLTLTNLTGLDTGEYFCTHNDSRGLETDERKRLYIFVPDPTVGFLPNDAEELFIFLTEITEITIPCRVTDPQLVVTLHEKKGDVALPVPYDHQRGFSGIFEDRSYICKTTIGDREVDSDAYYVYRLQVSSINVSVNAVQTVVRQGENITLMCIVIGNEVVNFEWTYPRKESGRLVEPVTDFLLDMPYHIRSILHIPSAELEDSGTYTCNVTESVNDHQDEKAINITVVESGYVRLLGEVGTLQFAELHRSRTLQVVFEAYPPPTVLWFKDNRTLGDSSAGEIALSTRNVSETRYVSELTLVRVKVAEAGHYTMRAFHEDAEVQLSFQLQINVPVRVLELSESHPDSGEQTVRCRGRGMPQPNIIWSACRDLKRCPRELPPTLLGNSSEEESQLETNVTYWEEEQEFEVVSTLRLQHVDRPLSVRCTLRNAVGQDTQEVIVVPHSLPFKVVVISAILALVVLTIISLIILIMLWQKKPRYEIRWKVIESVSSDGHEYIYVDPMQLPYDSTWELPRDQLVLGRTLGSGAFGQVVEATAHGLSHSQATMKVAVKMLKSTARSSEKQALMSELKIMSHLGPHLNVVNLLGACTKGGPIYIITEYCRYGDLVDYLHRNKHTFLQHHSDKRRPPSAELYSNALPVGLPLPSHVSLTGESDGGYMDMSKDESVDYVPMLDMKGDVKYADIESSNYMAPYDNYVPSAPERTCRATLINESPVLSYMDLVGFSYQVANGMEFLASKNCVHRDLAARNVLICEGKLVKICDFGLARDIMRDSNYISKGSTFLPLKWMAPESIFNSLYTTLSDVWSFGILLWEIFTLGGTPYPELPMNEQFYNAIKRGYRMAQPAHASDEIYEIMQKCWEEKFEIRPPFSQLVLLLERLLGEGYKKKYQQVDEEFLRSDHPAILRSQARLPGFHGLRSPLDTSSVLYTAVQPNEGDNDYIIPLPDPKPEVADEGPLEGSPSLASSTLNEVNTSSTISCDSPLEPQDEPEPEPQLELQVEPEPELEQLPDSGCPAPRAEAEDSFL

Row | IC50 (PDGFRβ) [nM] | IC50 (KDR (VEGFR2)) [nM] | Compound
1 | ~7 | ~1000 | CCn1cc(NC(=O)Cc2ncc(Oc3ccnc4cc(OC)c(OC)cc34)cn2)cn1 [Example 1, N-(1-ethylpyrazol-4-yl)-2-[5-(6,7-dimethoxyquinolin-4-yloxy)pyrimidin-2-yl]acetamide]
2 | ~6 | ~700 | CCc1cc(NC(=O)Cc2ncc(Oc3ccnc4cc(OC)c(OC)cc34)cn2)n[nH]1 [N-(5-ethyl-1H-pyrazol-3-yl)-2-[5-(6,7-dimethoxyquinolin-4-yloxy)pyrimidin-2-yl]acetamide]
